From ChEMBL document CHEMBL4507266, “Data for DCP probe BAY-784” (2021)

Key:
[1] = biological target: ATP-sensitive inward rectifier potassium channel 11 (Cricetulus griseus) (UniProt A0A3L7HHE1); test: Inhibition of Potassium Channel [KATP] at 10 µM in the Eurofins-Panlabs radioligand binding assay (Eurofins_assay_265600); details: Cricetinae; Compound concentration 10.0 uM
[2] = biological target: Sigma non-opioid intracellular receptor 1 (Homo sapiens) (UniProt Q99720); test: Sigma 1 Eurofins-Panlabs radioligand binding assay; design: ligand concentration 8 nM; details: Compound concentration 10.0 uM
Chain of Sigma non-opioid intracellular receptor 1 (Homo sapiens) (Q99720 whole entry): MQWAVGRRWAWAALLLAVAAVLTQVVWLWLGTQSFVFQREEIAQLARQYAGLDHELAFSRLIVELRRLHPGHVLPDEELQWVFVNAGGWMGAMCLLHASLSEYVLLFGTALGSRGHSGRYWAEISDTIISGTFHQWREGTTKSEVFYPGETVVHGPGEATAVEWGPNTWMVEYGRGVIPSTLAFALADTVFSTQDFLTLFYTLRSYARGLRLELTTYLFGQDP

[3] = biological target: Prostaglandin G/H synthase 2 (Homo sapiens) (UniProt P35354); test: Inhibition of Cyclooxygenase COX-2 at compound concentration of 10.0 uM in the Eurofins-Panlabs enzyme assay (Eurofins_assay_118010); design: substrate with concentration 0.3 uM Arachidonic acid, incubation time 15 min, incubation temperature 37 C; details: Compound concentration 10.0 uM
Chain of Prostaglandin G/H synthase 2 (Homo sapiens) (P35354 whole entry): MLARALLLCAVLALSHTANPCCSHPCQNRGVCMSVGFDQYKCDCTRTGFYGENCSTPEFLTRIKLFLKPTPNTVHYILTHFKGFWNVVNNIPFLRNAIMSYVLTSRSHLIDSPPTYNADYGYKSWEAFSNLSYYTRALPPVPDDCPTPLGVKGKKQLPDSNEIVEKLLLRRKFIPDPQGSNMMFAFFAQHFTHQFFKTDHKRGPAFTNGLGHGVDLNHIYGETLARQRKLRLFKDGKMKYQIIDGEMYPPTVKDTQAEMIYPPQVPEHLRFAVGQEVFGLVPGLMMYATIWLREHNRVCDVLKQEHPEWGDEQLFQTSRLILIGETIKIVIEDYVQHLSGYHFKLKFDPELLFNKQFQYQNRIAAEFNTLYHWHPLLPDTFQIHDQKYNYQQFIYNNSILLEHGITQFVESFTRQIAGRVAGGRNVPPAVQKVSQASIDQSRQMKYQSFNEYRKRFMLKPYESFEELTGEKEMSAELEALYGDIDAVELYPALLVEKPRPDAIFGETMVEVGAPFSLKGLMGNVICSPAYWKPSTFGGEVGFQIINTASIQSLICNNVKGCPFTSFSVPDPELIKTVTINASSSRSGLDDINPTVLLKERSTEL

CYP2C9 = CYP2C9 (Homo sapiens, UniProt P11712); test: CYP450, 2C9 Eurofins-Panlabs enzyme assay; details: compound concentration 10 uM
[4] = biological target: Polyunsaturated fatty acid lipoxygenase ALOX15 (Homo sapiens) (UniProt P16050); test: Inhibition of Lipoxygenase 15-LO at 10 µM in the Eurofins-Panlabs enzyme assay (Eurofins_assay_138000); details: Oryctolagus cuniculus; Compound concentration 10.0 uM
[5] = biological target: Interstitial collagenase (Homo sapiens) (UniProt P03956); test: Inhibition of Peptidase, Matrix Metalloproteinase-1 (MMP-1) at 10 µM in the Eurofins-Panlabs enzyme assay (Eurofins_assay_114110); details: Compound concentration 10.0 uM
[6] = biological target: Matrix metalloproteinase-9 (Homo sapiens) (UniProt P14780); test: Inhibition of Peptidase, Matrix Metalloproteinase-9 (MMP-9) at 10 µM in the Eurofins-Panlabs enzyme assay (Eurofins_assay_114910); design: substrate with concentration; details: Compound concentration 10.0 uM
Chain of Matrix metalloproteinase-9 (Homo sapiens) (P14780 whole entry): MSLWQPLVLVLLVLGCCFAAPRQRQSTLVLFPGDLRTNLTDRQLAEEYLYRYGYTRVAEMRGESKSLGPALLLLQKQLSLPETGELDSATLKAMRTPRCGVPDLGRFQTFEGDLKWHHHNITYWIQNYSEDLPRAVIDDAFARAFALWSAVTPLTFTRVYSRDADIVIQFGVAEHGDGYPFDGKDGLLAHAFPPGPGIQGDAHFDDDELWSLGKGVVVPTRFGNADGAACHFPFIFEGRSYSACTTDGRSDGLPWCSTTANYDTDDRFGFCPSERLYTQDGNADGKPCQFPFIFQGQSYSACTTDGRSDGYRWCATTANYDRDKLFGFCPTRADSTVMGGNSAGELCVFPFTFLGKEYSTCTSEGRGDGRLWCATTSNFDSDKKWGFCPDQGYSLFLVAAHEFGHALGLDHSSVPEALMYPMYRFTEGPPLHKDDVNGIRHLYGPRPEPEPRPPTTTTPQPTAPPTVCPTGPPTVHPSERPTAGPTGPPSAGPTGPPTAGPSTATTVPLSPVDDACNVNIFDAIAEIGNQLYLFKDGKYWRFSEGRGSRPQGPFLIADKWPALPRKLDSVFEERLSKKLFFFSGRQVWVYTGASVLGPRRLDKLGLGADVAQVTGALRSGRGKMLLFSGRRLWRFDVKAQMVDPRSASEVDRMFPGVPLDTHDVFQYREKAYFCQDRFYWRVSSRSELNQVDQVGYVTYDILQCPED

[7] = biological target: Mitogen-activated protein kinase 1 (Homo sapiens) (UniProt P28482); test: Inhibition of Protein Serine/Threonine Kinase, MAPK1 (ERK2) at 10 µM in the Eurofins-Panlabs enzyme assay (Eurofins_assay_171120); design: substrate with concentration; details: Compound concentration 10.0 uM
[8] = biological target: T1, Alpha-2A adrenergic receptor (Homo sapiens) (UniProt P08913); test: Adrenergic alpha2A Eurofins-Panlabs radioligand binding assay; design: ligand concentration 1 nM, non-specific ligand with concentration 10 µM WB-4101, incubation time 60 min, incubation temperature 25 °C; details: Compound concentration 10.0 uM
T1 sequence (whole entry): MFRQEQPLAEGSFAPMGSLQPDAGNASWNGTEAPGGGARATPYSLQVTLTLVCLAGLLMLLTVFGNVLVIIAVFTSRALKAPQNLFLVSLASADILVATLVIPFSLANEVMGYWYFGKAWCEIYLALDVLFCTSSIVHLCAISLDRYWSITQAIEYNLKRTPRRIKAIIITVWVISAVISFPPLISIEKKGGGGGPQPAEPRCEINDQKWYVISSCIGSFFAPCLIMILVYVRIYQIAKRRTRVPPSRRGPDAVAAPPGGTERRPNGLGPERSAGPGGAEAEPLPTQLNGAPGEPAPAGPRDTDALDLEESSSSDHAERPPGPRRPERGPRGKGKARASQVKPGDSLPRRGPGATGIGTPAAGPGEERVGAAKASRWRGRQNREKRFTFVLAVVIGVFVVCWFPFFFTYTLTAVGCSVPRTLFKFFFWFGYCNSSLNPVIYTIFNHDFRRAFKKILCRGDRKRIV

[9] = biological target: C-C chemokine receptor type 5 (Homo sapiens) (UniProt P51681); test: Inhibition of Chemokine CCR5 at 10 µM in the Eurofins-Panlabs radioligand binding assay (Eurofins_assay_217720); details: Compound concentration 10.0 uM
[10] = biological target: Melanocortin receptor 3 (Homo sapiens) (UniProt P41968); test: Inhibition of Melanocortin MC3 at 10 µM in the Eurofins-Panlabs radioligand binding assay (Eurofins_assay_251300); design: ligand concentration 0.035 nM; details: Compound concentration 10.0 uM
Chain of Melanocortin receptor 3 (Homo sapiens) (P41968 whole entry): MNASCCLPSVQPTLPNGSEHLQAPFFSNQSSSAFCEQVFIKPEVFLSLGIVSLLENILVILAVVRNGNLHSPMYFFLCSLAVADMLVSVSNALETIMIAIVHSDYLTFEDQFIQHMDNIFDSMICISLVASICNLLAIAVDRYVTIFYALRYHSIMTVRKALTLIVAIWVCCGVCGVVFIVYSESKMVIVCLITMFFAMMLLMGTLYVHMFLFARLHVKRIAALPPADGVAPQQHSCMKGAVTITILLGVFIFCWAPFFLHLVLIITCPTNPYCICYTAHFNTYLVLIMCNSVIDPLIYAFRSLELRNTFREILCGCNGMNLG

[11] = biological target: 5-hydroxytryptamine receptor 4 (Homo sapiens) (UniProt Q13639); test: Inhibition of Serotonin (5-Hydroxytryptamine) 5-HT4 at 10 µM in the Eurofins-Panlabs radioligand binding assay (Eurofins_assay_272000); details: Cavia porcellus; Compound concentration 10.0 uM
Chain of 5-hydroxytryptamine receptor 4 (Homo sapiens) (Q13639 whole entry): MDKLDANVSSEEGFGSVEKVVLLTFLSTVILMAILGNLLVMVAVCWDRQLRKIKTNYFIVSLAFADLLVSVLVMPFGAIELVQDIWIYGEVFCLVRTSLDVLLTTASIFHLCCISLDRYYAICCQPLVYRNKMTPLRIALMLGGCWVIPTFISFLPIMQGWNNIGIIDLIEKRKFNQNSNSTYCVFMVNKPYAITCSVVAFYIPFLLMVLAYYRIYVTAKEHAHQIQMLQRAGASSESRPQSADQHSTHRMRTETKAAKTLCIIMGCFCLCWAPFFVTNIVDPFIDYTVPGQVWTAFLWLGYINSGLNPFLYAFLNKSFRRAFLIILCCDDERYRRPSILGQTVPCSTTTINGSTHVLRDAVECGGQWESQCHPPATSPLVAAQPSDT

[12] = biological target: 5-hydroxytryptamine receptor 6 (Homo sapiens) (UniProt P50406); test: Inhibition of Serotonin (5-Hydroxytryptamine) 5-HT6 at 10 µM in the Eurofins-Panlabs radioligand binding assay (Eurofins_assay_272200); details: Compound concentration 10.0 uM
[13] = biological target: Substance-K receptor (Homo sapiens) (UniProt P21452); test: Inhibition of Tachykinin NK2 at 10 µM in the Eurofins-Panlabs radioligand binding assay (Eurofins_assay_255600); design: ligand concentration 0.5 nM; details: Compound concentration 10.0 uM
[14] = biological target: Adenosine receptor A3 (Homo sapiens) (UniProt P0DMS8); details: Compound concentration 10.0 uM
Chain of Adenosine receptor A3 (Homo sapiens) (P0DMS8 whole entry): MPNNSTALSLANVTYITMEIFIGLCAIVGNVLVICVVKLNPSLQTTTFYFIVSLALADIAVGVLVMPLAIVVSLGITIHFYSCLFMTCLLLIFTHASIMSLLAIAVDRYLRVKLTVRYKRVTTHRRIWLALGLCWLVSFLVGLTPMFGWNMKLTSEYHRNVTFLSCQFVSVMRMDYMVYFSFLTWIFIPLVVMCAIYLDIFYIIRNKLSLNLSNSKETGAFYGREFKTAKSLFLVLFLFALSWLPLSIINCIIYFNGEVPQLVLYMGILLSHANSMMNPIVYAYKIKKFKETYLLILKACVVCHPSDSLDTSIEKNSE

[15] = biological target: T2, GABA-A receptor; anion channel (Rattus norvegicus) (UniProt O09028+P15431+P18506+P18508+P19969+P20236+P23574+P23576+P28471+P28473+P30191+P62813+P63079+P63138+Q91ZM7+Q9ES14); details: Compound concentration 10.0 uM
[16] = biological target: T3, Alpha-2B adrenergic receptor (Homo sapiens) (UniProt P18089); details: Compound concentration 10.0 uM
T3 sequence (whole entry): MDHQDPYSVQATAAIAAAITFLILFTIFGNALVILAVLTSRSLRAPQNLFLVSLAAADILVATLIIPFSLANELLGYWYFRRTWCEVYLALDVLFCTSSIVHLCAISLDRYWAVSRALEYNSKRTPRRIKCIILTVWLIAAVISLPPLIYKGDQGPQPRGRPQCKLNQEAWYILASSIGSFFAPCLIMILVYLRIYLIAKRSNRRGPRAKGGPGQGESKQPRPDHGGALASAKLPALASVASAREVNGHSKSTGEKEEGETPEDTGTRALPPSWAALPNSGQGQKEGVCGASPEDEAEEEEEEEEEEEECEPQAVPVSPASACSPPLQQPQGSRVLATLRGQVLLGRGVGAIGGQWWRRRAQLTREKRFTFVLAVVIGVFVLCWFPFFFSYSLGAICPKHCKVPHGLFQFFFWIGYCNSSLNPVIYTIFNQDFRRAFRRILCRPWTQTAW

[17] = biological target: Beta-3 adrenergic receptor (Homo sapiens) (UniProt P13945); details: Compound concentration 10.0 uM
Chain of Beta-3 adrenergic receptor (Homo sapiens) (P13945 whole entry, looked up): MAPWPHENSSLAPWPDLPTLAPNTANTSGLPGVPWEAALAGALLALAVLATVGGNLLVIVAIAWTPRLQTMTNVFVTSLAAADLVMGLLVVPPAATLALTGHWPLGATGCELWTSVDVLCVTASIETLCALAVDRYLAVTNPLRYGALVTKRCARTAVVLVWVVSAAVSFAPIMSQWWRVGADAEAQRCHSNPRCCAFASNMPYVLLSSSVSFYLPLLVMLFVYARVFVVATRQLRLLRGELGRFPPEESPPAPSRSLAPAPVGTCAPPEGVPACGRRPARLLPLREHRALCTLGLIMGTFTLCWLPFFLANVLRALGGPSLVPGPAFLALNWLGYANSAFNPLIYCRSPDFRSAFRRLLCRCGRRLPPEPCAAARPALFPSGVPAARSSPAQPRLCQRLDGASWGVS

[18] = biological target: D(2) dopamine receptor (Homo sapiens) (UniProt P14416); details: Compound concentration 10.0 uM
Chain of D(2) dopamine receptor (Homo sapiens) (P14416 whole entry): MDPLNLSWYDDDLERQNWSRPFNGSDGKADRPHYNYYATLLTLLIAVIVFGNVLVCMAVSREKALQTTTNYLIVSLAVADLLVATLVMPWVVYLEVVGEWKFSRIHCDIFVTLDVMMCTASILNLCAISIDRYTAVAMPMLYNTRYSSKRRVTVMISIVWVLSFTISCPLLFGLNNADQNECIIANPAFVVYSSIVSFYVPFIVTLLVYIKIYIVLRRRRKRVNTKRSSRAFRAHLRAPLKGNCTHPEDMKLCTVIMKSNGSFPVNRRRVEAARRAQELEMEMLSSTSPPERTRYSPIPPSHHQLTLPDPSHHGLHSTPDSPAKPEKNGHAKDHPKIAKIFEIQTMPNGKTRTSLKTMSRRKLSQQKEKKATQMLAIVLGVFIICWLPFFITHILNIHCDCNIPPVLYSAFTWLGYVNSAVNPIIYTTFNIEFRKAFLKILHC

[19] = biological target: T2, GABA-A receptor; anion channel (Rattus norvegicus); details: Compound concentration 10.0 uM; remark: listed apart in the source
[20] = biological target: Glutamate receptor 2 (Homo sapiens) (UniProt P42262); details: Rattus norvegicus; Compound concentration 10.0 uM
Chain of Glutamate receptor 2 (Homo sapiens) (P42262 whole entry): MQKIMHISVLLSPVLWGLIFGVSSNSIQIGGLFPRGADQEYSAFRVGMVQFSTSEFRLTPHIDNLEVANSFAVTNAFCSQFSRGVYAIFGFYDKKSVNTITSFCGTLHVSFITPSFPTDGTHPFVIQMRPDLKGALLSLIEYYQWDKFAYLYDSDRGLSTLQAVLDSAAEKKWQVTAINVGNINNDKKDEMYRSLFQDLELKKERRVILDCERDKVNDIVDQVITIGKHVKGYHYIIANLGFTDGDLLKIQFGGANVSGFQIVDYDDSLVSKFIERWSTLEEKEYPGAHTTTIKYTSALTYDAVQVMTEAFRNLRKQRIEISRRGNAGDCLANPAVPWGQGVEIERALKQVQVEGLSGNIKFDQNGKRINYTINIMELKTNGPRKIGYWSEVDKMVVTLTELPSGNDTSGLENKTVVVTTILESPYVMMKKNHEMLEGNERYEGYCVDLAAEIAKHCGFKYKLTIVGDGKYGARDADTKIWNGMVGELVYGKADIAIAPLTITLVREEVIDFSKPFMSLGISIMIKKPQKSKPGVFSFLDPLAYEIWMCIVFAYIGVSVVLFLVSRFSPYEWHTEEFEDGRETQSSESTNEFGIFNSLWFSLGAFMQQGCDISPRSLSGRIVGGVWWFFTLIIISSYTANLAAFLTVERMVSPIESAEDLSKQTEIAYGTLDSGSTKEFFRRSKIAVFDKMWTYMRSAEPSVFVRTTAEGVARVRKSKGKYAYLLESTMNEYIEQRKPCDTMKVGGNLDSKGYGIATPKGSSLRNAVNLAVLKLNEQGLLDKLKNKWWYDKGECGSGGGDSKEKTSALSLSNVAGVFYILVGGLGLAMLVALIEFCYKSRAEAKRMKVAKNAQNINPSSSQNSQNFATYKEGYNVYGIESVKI

Chain of ATP-sensitive inward rectifier potassium channel 11 (Cricetulus griseus) (A0A3L7HHE1 as listed by the source): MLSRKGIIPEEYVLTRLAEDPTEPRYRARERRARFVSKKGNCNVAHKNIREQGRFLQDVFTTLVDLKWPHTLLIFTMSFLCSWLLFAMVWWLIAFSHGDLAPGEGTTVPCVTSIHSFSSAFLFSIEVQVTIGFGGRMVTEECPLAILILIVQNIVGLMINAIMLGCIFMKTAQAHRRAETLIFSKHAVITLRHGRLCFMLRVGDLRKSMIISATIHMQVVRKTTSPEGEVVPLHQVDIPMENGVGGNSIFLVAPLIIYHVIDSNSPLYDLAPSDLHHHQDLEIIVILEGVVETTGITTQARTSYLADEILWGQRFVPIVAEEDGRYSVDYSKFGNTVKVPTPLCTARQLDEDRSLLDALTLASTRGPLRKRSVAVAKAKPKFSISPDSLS

O=C(NCc1ncc(C(F)(F)F)cc1Cl)c1ccc2c(c1)C1(CCS(=O)(=O)CC1)[C@H](C1CC1)N2S(=O)(=O)c1ccc(F)cc1 [BAY-784]
inactive: inhibition [1] 0% | inhibition [2] 15% | inhibition [3] 4% | inhibition [4] 11% | inhibition [5] -4% | inhibition [6] 3% | inhibition [8] -1% | inhibition [9] -1% | inhibition [10] -7% | inhibition [11] 22% | inhibition [12] 14% | inhibition [13] 7% | inhibition [14] 9% | inhibition [15] -1% | inhibition [16] 4% | inhibition [17] 0% | inhibition [18] 4% | inhibition [19] 34% | inhibition [20] 2%
32% (not active): inhibition at 10 µM (CYP2C9)
active: inhibition [7] 53%
